Laboratory results as given in patent US10570168B2, “2′ and/or 5′ amino-acid ester phosphoramidate 3′-deoxy adenosine derivatives as anti- cancer compounds” (NuCana plc, priority 2014, dated 2020).
Like-named read-outs stand apart in the source and are kept apart here.

Tests used:
Test in all cases: Solid tumour and haematological malignancy assay (CellTiterGlo)
Format in all cases: cell-based
CCRFCEM = settings: Homo sapiens, CCRF-CEM; for Emax: read-out: MI %; for EC50: read-out: EC50 (absolute EC50)
In short: (§1)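 Cells were exposed to compound for 72 hr under standard growth conditions, in duplicate, with 0.5% final DMSO. Viability was then read by CellTiterGlo luminescence.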

HEL92.1.7 = settings: Homo sapiens; for Emax: read-out: MI %; for EC50: read-out: EC50 (absolute EC50)
In short: as §1

HL-60 = settings: Homo sapiens; for Emax: read-out: MI %; for EC50: read-out: EC50 (absolute EC50)
In short: as §1

HT29 = settings: Homo sapiens; for Emax: read-out: MI %; for EC50: read-out: EC50 (absolute EC50)
In short: as §1

HepG2 = settings: Homo sapiens; for Emax: read-out: MI %; for EC50: read-out: EC50 (absolute EC50)
In short: as §1

K562 = settings: Homo sapiens; for Emax: read-out: MI %; for EC50: read-out: EC50 (absolute EC50)
In short: as §1

KG-1 = settings: Homo sapiens; for Emax: read-out: MI %; for EC50: read-out: EC50 (absolute EC50)
In short: as §1

MCF7 = settings: Homo sapiens; for Emax: read-out: MI %; for EC50: read-out: EC50 (absolute EC50)
In short: as §1

MiaPaCa-2 = settings: Homo sapiens; for Emax: read-out: MI %; for EC50: read-out: EC50 (absolute EC50)
In short: as §1

BxPC-3-Luc = settings: read-out: EC50 (absolute EC50)
Experimental: (§2) In vitro viability assay were performed to assess the effects of compounds on cell viability in selected cell lines over 72 hr using the CellTiterGlo (CTG, Promega-G7573) assay. The tests were performed in duplicates with treatment of compounds at 9 points, 3.16 folds titration in 96 well plates over ˜72 hr. The compound starting concentrations were […]. Cell viability assay using CellTiterGlo in 96-well plate were performed. Compound treatment 72 hrs, standard growth conditions, duplicates. Compounds were dissolved to 40 mM with thawed […]. Compounds were serially diluted at 3.16 fold in thawed DMSO, and warmed to 37° C. before being dissolved in media ([…]). After compounds were dissolved in media, media containing compounds were warmed to 37° C. in incubator and then compounds in media were added to cell plates ([…]) in duplicates. The compounds' final concentrations were from […] to 19.9 nM. All compound solubilities were checked and recorded again, then the plates were transferred to CO2 tissue culture incubator immediately and incubated for 3 days. DMSO final concentration is 0.5%.

HS445 = settings: for Emax: read-out: MI %; for EC50: read-out: EC50 (absolute EC50)
Experimental: as §2

MOLT-4 = settings: Homo sapiens; for Emax: read-out: MI %; for EC50: read-out: EC50 (absolute EC50)
Experimental: as §2

MV4-11 = settings: Homo sapiens; for Emax: read-out: MI %; for EC50: read-out: EC50 (absolute EC50)
Experimental: as §2

NCI-H929 = settings: Homo sapiens; for Emax: read-out: MI %; for EC50: read-out: EC50 (absolute EC50)
Experimental: as §2

RL = settings: Homo sapiens; for Emax: read-out: MI %; for EC50: read-out: EC50 (absolute EC50)
Experimental: as §2

RPMI-8226 = settings: Homo sapiens; for Emax: read-out: MI %; for EC50: read-out: EC50 (absolute EC50)
Experimental: as §2

SW620 = settings: Homo sapiens; for Emax: read-out: MI %; for EC50: read-out: EC50 (absolute EC50)
Experimental: as §2

THP-1 = settings: Homo sapiens; for Emax: read-out: MI %; for EC50: read-out: EC50 (absolute EC50)
Experimental: as §2

Z138 = settings: Homo sapiens; for Emax: read-out: MI %; for EC50: read-out: EC50 (absolute EC50)
Experimental: as §2

With `Nc1nc(Cl)nc2c1ncn2[C@@H]1O[C@H](CO)C[C@H]1O` [2-Cl-cordycepin, 3′-deoxy-2-chloroadenosine, reference compound] the Emax (CCRFCEM; 72 hr, Table VII) was 98.1%, the EC50 (CCRFCEM; 72 hr) was 15 to 100 µM and the Emax (HEL92.1.7; HEL.92.1.7, 72 hr, Table VII) was 94.3%. It also gave an EC50 (HEL92.1.7; HEL.92.1.7, 72 hr) of 5 to 15 µM, an Emax (HL-60; HL-60, 72 hr, Table VII) of 84.4% and an EC50 (HL-60; HL-60, 72 hr) of 15 to 100 µM. The Emax (HT29; HT-29, HT29, 72 hr, Table VII) was 4.4%, the EC50 (HT29; HT-29, HT29, 72 hr) was greater than 100 µM and the Emax (HepG2; HepG2, 72 hr, Table VII) was 31.1%. It also gave an EC50 (HepG2; HepG2, 72 hr) greater than 100 µM, an Emax (K562; K562, 72 hr, Table VII) of 37.6% and an EC50 (K562; K562, 72 hr) greater than 100 µM. The Emax (KG-1; KG-1, 72 hr, Table VII) was 4.3%, the EC50 (KG-1; KG-1, 72 hr) was greater than 100 µM and the Emax (MCF7; MCF7, MCF-7, 72 hr, Table VII) was -0.9%. The EC50 (MCF7; MCF7, MCF-7, 72 hr) was greater than 100 µM, the Emax (MiaPaCa-2; MIA PaCa-2, Mia-Pa-Ca-2, 72 hr, Table VII) was 17.7% and the EC50 (MiaPaCa-2; MIA PaCa-2, Mia-Pa-Ca-2, 72 hr) was greater than 100 µM. For the same molecule, the EC50 (BxPC-3-Luc; BxPC-3-Luc, 72 hr) was greater than 100 µM, the Emax (HS445; Hs 445, HS445, 72 hr, Table VII) was -1.9% and the EC50 (HS445; Hs 445, HS445, 72 hr) was greater than 100 µM. It also gave an Emax (MOLT-4; MOLT-4, 72 hr, Table VII) of 80.4%, an EC50 (MOLT-4; MOLT-4, 72 hr) greater than 100 µM and an Emax (MV4-11; MV4-11, 72 hr, Table VII) of 100%. It also gave an EC50 (MV4-11; MV4-11, 72 hr) of 15 to 100 µM, an Emax (NCI-H929; NCI-H929, 72 hr, Table VII) of 93.6% and an EC50 (NCI-H929; NCI-H929, 72 hr) of 5 to 15 µM. The Emax (RL; 72 hr, Table VII) was 84.1%, the EC50 (RL; 72 hr) was 15 to 100 µM and the Emax (RPMI-8226; RPMI-8226, 72 hr, Table VII) was 29%. The EC50 (RPMI-8226; RPMI-8226, 72 hr) was greater than 100 µM, the Emax (SW620; SW-620, SW620, 72 hr, Table VII) was 36.3% and the EC50 (SW620; SW-620, SW620, 72 hr) was greater than 100 µM. For the same molecule, the Emax (THP-1; THP-1, 72 hr, Table VII) was 24.1%, the EC50 (THP-1; THP-1, 72 hr) was greater than 100 µM and the Emax (Z138; Z-138, 72 hr, Table VII) was 99.5%. It also gave an EC50 (Z138; Z-138, 72 hr) of 15 to 100 µM.
`CC(NP(=O)(OC[C@@H]1C[C@@H](O)[C@H](n2cnc3c(N)nc(Cl)nc32)O1)Oc1cccc2ccccc12)C(=O)OCc1ccccc1` (stereo in doubt) [S, (2R)-benzyl 2-((((2S,4R,5R)-5-(6-amino-2-chloro-9H-purin-9-yl)-4-hydroxytetrahydrofuran-2-yl)methoxy)(naphthalen-1-yloxy)phosphorylamino)propanoate] showed an EC50 (CCRFCEM; 72 h) of 5 to 15 µM, an Emax (CCRFCEM; 72 h) of 100% and an EC50 (HEL92.1.7; HEL 92.1.7, 72 h) of 5 to 15 µM. For the same molecule, the Emax (HEL92.1.7; HEL 92.1.7, 72 h) was 100%, the EC50 (HL-60; HL-60, 72 h) was 5 to 15 µM and the Emax (HL-60; HL-60, 72 h) was 102%. For the same molecule, the EC50 (HT29; HT-29, 72 h) was 15 to 100 µM, the Emax (HT29; HT-29, 72 h) was 88.1% and the EC50 (HepG2; HepG2, 72 h) was 15 to 100 µM. It also gave an Emax (HepG2; HepG2, 72 h) of 84.6%, an EC50 (K562; K562, 72 h) of 15 to 100 µM and an Emax (K562; K562, 72 h) of 101%. It also gave an EC50 (KG-1; KG-1, 72 h) of 15 to 100 µM, an Emax (KG-1; KG-1, 72 h) of 99% and an EC50 (MCF7; MCF7, 72 h) of 15 to 100 µM. The Emax (MCF7; MCF7, 72 h) was 101%, the EC50 (MiaPaCa-2; MIA PaCa-2, 72 h) was 15 to 100 µM and the Emax (MiaPaCa-2; MIA PaCa-2, 72 h) was 98.2%. For the same molecule, the EC50 (BxPC-3-Luc; 72 h) was 15 to 100 µM, the EC50 (HS445; Hs 445, 72 h) was 15 to 100 µM and the Emax (HS445; Hs 445, 72 h) was 106%. The EC50 (MOLT-4; MOLT-4, 72 h) was 5 to 15 µM, the Emax (MOLT-4; MOLT-4, 72 h) was 100% and the EC50 (MV4-11; MV4-11, 72 h) was 5 to 15 µM. It also gave an Emax (MV4-11; MV4-11, 72 h) of 101%, an EC50 (NCI-H929; NCI-H929, 72 h) of 5 to 15 µM and an Emax (NCI-H929; NCI-H929, 72 h) of 102%. It also gave an EC50 (RL; 72 h) of 5 to 15 µM, an Emax (RL; 72 h) of 100% and an EC50 (RPMI-8226; RPMI-8226, 72 h) of 15 to 100 µM. The Emax (RPMI-8226; RPMI-8226, 72 h) was 99.6%, the EC50 (SW620; SW-620, 72 h) was 15 to 100 µM and the Emax (SW620; SW-620, 72 h) was 92.1%. For the same molecule, the EC50 (THP-1; THP-1, 72 h) was 15 to 100 µM, the Emax (THP-1; THP-1, 72 h) was 97% and the EC50 (Z138; Z-138, 72 h) was 15 to 100 µM. The Emax (Z138; Z-138, 72 h) was 90.2%.
